In patent US20180368393A1, “PRE- AND POST-STORAGE STRESS RESPONSE CONDITIONING” (CPSI HOLDINGS LLC, priority 2017, published 2018):

Columns and labels:
[1] = tested on: human smooth muscle cells; assay: Human smooth muscle cell monolayer survival and repopulation following cryopreservation (Calcein-AM assay); format: cell-based
Procedure: (§1) The device was used to thaw the samples, which were frozen in situ in monolayers in standard 96-well tissue culture plates. Samples were thawed from less than −170° C. to about 4° C. in the 96-well plate format in about 5 mins in a dry clean (“sterile”) environment.
The study described in example 3.1 focuses on the collection of cell survival data and the impact of post-thaw conditioning on human smooth muscle cells (SMCs). Specific activities included application of the high throughput monolayer sample cryopreservation protocol and collection of data (survival and cell death) from samples frozen using 6 unique cryopreservation solutions (U5, U10, U20, U5G10, U10G10, DP6) and 6 unique modulators (resveratrol, salubrinal, caspase inhibitors (IV, 8, 9) and NAC). Survival was determined at 24 hours post-thaw to allow for the manifestation of any delayed onset cell death pathways to be executed. Further, cell recovery was included to evaluate the long term potency and repopulation potential of the various samples.
A series of experiments was conducted to evaluate the performance of several solutions (U5, U10, U20, U5G10, U10G10 and DP6) as well as the impact of pre-freeze (PF) and post-warming (PW) conditioning with the apoptotic inhibitors Caspase 8, Caspase 9 and Caspase IV inhibitors. Cell samples were processed using the monolayer CP protocol and analyzed following 24 hours to 7 days post thaw for survival and recovery. These experiments were conducted to evaluate the impact of molecular modulators (inhibitors) during pre-freeze or post-thaw recovery on cell survival when added to the media 1 hour prior to or 24 hour following cryopreservation. […] To this end, samples were probed with Calcein-AM, incubated for 30 mins in the dark and then imaged using a Zeiss Axiovert 200 fluorescence microscope and Axiovision software. Images were taken at 24 hours to 7 days post-thaw to allow for assessment of solution and post-thaw conditioning agent performance.
As in previous experiments, the 24 hour time point was used for initial survival assessment, as this time point allows for the manifestation of molecular based cell stress-induced death. This provides a more accurate measure of survival than 0 or 1 hour post-thaw assessment, as is typically used. The 3 day time point was selected to assess re-population potential of any surviving cells as an indicator of long term potency.
For smooth muscle cell pre-freeze (PF) conditioning studies, 1 hour prior to CP addition, culture media was decanted and 100 μL of fresh media supplemented with caspase 8, 9, or IV was added to each respective well. Samples were then incubated at 37° C. for 1 hour, followed by media removal and addition of 100 μL of CP solution to samples followed by cryopreservation as described above. Following preservation, samples were thawed, diluted, and placed into culture. Following 24 hours recovery, cell viability was assessed.
For smooth muscle cell post-warming (PW) conditioning studies, following thawing and cryopreservation, CP solution was removed or diluted with culture media supplemented with caspase 8, 9, or IV. FIG. 18 illustrates the impact of apoptotic inhibition post-freeze conditioning on human smooth muscle cell survival 1 day following cryopreservation with and without reduced CPA.
For P/P conditioning studies, 1 hour prior to CP addition, culture media was decanted and 100 μL of fresh media supplement with caspase 8, 9, or IV was added to each respective well.

hamster beta islet cells = assay: Hamster beta islet cell survival following cryopreservation (AlamarBlue assay); format: cell-based; conditions: PW conditioning 24 hours vs non-modulated samples; 10 mM NAC recovery media
Procedure: The studies described in example 8 focus on the collection of cell survival data and the impact of post-thaw conditioning on hamster beta islet cells. Specific activities included standard cryopreservation protocol and collection of data (survival and cell death) from samples frozen using 3 unique cryopreservation solutions (media with 0, 5% DMSO and 5% DMSO+NAC) and oxidative stress PW modulation (NAC). Survival was determined at 24 hours post-thaw to allow for the manifestation of any delayed onset cell death pathways to be executed. Further, cell recovery was included to evaluate the long term potency and repopulation potential of the various samples.
Cell samples were processed according to standard controlled rate suspension freeze protocols and analyzed following 24 hours to 3 days post thaw for survival and recovery. […] To this end, samples were probed with AlamarBlue, incubated for 60 mins in the dark and then assessed using a Tecan micro plate reader. […]
FIG. 33 illustrates the results of an assessment of beta islet cell survival following cryopreservation in media based solutions with various CPA concentrations. […] Following thawing, samples were placed into culture and assessed for viability at 1 day (24 hours) post-thaw using the AlamarBlue assay. […]

[2] = tested on: endothelial and smooth muscle cells; assay: Summary of Examples 2-3: post-thaw survival of endothelial and smooth muscle cells (Calcein-AM assay); format: cell-based, human
Procedure: For pre-freeze (PF), post-warming (PW) and pre/post (P/P) conditioning studies, molecular modulation agents targeting inhibition of apoptosis (Caspase inhibitor IV, 8, 9 and a combination of Caspases 8 and 9), reduction of free-radical damage (resveratrol and NAC), and activation of the unfolded protein response (salubrinal) were employed as supplements in the media 1 hour prior to freezing (pre-freeze condition) or for 1 day following thawing and CPA removal from frozen samples (post-warming condition).
as §1
The P/P regime was followed by PW using Caspase 8 inhibition or NAC inhibition.

## CC(=O)N[C@@H](CS)C(=O)O [NAC, n-acetyl cysteine]
[1]; P/P conditioning with oxidative stress modulators
  repopulation / recovery at 3 days post-thaw: day 3 recovery reached a monolayer similar to non-treated controls
[1]; P/P conditioning, vs non-conditioned samples
  day 1 cell survival: slight to no improvement in cell survival
[1]; PW conditioning in combination with the other solutions
  post-thaw cell survival or recovery (overall): Broader solution benefit
[1]; PW conditioning with oxidative stress modulators
  cell recovery / repopulation, day 3: improved cell recovery
[1]; PW conditioning, vs non-treated matched samples
  day 1 cell survival: improvement in cell survival
Hamster beta islet cells
  post-thaw survival: improvement in post-thaw survival
[2]; PF, PW and P/P conditioning, Unisol based solutions
  day 1 post-thaw cell survival and cell recovery: Improvements in survival
[2]; PW conditioning
  increase in cell survival over non-treated samples: ~50%
